{"source": "patent US20100125103A1", "about": "(TG BIOTECH CO. LTD., priority 2008, published 2010)", "key": {"Solubility (Table 1)": {"experiment": "Solubility (Table 1)", "assay_type": "physicochemical", "details": "for Solubility Insoluble: solvents in which the compound is insoluble; for Solubility Soluble: solvents in which the compound is soluble", "protocol": "Each of the compounds prepared by Examples 1 to 7 were subjected to UV absorbance analysis, IR(infrared) absorbance analysis and high resolution mass spectrometry analysis so as to determine the molecular weight and formula of the purified compound. Specifically, UV absorbance analysis was carried out by UV-265 spectrophotometer (Shimadzu), IR absorbance analysis was carried out by FTS-80 spectrophotometer (Bio-Rad Digilab Division), and the molecular weight and formula were determined through High resolution MS analysis by using VG70-SEQ mass spectrometry. Also, a nuclear magnetic resonance device (Varian 300, 500 NMR) was used to obtain ^1H, ^13C-NMR spectrum, and the spectrum was synthetically analyzed to determine the structure."}, "diabetic db/db mice": {"system": "diabetic db/db mice", "experiment": "Blood glucose level in db/db mice", "assay_type": "in vivo", "details": "for reduced extent of blood glucose level compared to control / blood glucose level: 10 mg/kg oral", "protocol": "In order to measure the blood glucose level in db/db mice through treatment of the compounds obtained from Examples, the effects of the compounds were measured by using a method described in the reference (Halseth A E et al, Biochem Biophys Res Commun. 294, […], 2002).\nMeanwhile, to a control group, the same volume of saline solution orally administered for 4 weeks. Then, the change in blood glucose level of the mice was recorded."}}, "note": "“Also recorded” adds a separate entry of the source.", "data": [{"molecule": "CCCc1ccc(Oc2cc(CCC)cc(O)c2OC)cc1", "note": "[Example 3, 3-(4-propylphenoxy)-2-methoxy-5-propylphenol]", "values": [{"measurement": "Solubility Insoluble", "setting": "Solubility (Table 1)", "result": "Hexane,; also recorded: Water"}, {"measurement": "Solubility Soluble", "setting": "Solubility (Table 1)", "result": "Alcohol, and DMSO"}]}, {"molecule": "obovatol [Example 1]", "values": [{"measurement": "change in blood glucose level compared to the control group", "setting": "diabetic db/db mice; 5 mg/kg oral, 4 weeks", "result": "did not show a significant change"}, {"measurement": "reduced extent of blood glucose level compared to control", "setting": "diabetic db/db mice; after 1 week", "result": 39.6, "unit": "%"}, {"measurement": "blood glucose level", "setting": "diabetic db/db mice; after 1 week (control 390.25±44.1)", "result": "235.75±20.9"}, {"measurement": "reduced extent of blood glucose level compared to control", "setting": "diabetic db/db mice; after 2 weeks", "result": 29.2, "unit": "%"}, {"measurement": "blood glucose level", "setting": "diabetic db/db mice; after 2 weeks (control 419.75±28.8)", "result": "297.25±29"}, {"measurement": "reduced extent of blood glucose level compared to control", "setting": "diabetic db/db mice; after 3 weeks", "result": 52.7, "unit": "%"}, {"measurement": "blood glucose level", "setting": "diabetic db/db mice; after 3 weeks (control 495±86.2)", "result": "234±61.5"}, {"measurement": "reduced extent of blood glucose level compared to control", "setting": "diabetic db/db mice; after 4 weeks", "result": 55.2, "unit": "%"}, {"measurement": "blood glucose level", "setting": "diabetic db/db mice; after 4 weeks (control 522±78)", "result": "288±27.6"}]}, {"molecule": "CCCc1ccc(Oc2cc(CCC)cc(O)c2O)cc1", "note": "[Example 2, 3-(4-propylphenoxy)-5-propylbenzene-1,2-diol]", "values": [{"measurement": "Solubility Insoluble", "setting": "Solubility (Table 1)", "result": "Water"}, {"measurement": "Solubility Soluble", "setting": "Solubility (Table 1)", "result": "Alcohol, and DMSO"}]}, {"molecule": "CCCc1ccc(Oc2cc(CCC)cc(OC(C)=O)c2OC(C)=O)cc1", "note": "[Example 4, 1-(4-propylphenoxy)-2,3-diacetyloxy-5-propylbenzene]", "values": [{"measurement": "Solubility Insoluble", "setting": "Solubility (Table 1)", "result": "Water"}, {"measurement": "Solubility Soluble", "setting": "Solubility (Table 1)", "result": "Alcohol, and DMSO"}]}, {"molecule": "C/C=C/c1ccc(Oc2cc(/C=C/C)cc(OC(C)=O)c2OC(C)=O)cc1", "note": "[Example 7, 1-(4-((E)-prop-1-enyl)phenoxy)-2,3-diacetyloxy-5-((E)-prop-1-enyl)benzene]", "values": [{"measurement": "Solubility Insoluble", "setting": "Solubility (Table 1)", "result": "Water"}, {"measurement": "Solubility Soluble", "setting": "Solubility (Table 1)", "result": "Alcohol, and DMSO"}]}, {"molecule": "C/C=C/c1ccc(Oc2cc(/C=C/C)cc(O)c2O)cc1", "note": "[Example 5, 3-(4-((E)-prop-1-enyl)phenoxy)-5-((E)-prop-1-enyl)benzene-1,2-diol]", "values": [{"measurement": "Solubility Insoluble", "setting": "Solubility (Table 1)", "result": "Water"}, {"measurement": "Solubility Soluble", "setting": "Solubility (Table 1)", "result": "Alcohol, and DMSO"}]}]}
